The source made the active and inactive calls. The calls are words filed in the database; no cut-off is given here.
Key:
[1] = Inhibition of PI3K/AKT/mTOR signalling pathway in human NCI-H1048 cells assessed as decrease in AKT level at 1 to 8 uM incubated for 48 hrs by Western blot analysis; assay type: cell-based; details: dose 1-8 µM
[2] = Inhibition of PI3K/AKT/mTOR signalling pathway in human NCI-H1048 cells assessed as decrease in PI3K phosphorylation at 1.75 to 14 uM incubated for 48 hrs by Western blot analysis; assay type: cell-based; details: dose 1.75-14 µM

## CC1CC(C)CN(Cc2cc3c(cc2-c2cc4ccc5c(c4cn2)OCO5)OCO3)C1 (configuration not stated)
[1]
  inhibition: Active

## CCC1CCCC(C)N1Cc1cc2c(cc1-c1cc3ccc4c(c3cn1)OCO4)OCO2 (configuration not stated)
[2]
  inhibition: Active

Source: ChEMBL document CHEMBL6153083, “Synthesis, Structural Modification, and Antismall Cell Lung Cancer Activity of 3-Arylisoquinolines with Dual Inhibitory Activity on Topoisomerase I and II” (J Med Chem, 2025)
